In ChEMBL document CHEMBL4808181, “Hydrophobic Pocket Occupation Design of Difluoro-Biphenyl-Diarylpyrimidines as Non-Nucleoside HIV-1 Reverse Transcriptase Inhibitors: from N-Alkylation to Methyl Hopping on the Pyrimidine Ring” (J Med Chem, 2021):

Assays:
[1] = Metabolic stability in human liver microsomes; format: ADME, Microsome
[2] = tested on: Human immunodeficiency virus 1; test: Antiviral activity against HIV-1 infected in human MT-4 cells assessed as reduction in virus-induced cytopathic effect incubated for 5 days by MTT assay; format: functional, organism-based; details: Human immunodeficiency virus 1, MT4, 120 h
[3] = Cytotoxicity against in human MT-4 cells after 5 days by MTT assay; format: cell-based, MT4; details: time 5 day
[4] = Selectivity index, ratio of CC50 for human MT-4 cells to EC50 for HIV-1 infected in MT-4 cells; format: toxicity, cell-based; details: read-out: Ratio CC50/EC50
[5] = target: Human immunodeficiency virus type 1 reverse transcriptase (Human immunodeficiency virus 1, UniProt Q72547, L100I); test: Inhibition of HIV-1 p66/p51 reverse transcriptase L100I mutant incubated for 40 mins by picogreen dye-based spectrofluorometric analysis
[6] = target: Human immunodeficiency virus type 1 reverse transcriptase (Human immunodeficiency virus 1, UniProt Q72547, K103N); test: Inhibition of HIV-1 p66/p51 reverse transcriptase K103N mutant incubated for 40 mins by picogreen dye-based spectrofluorometric analysis
[7] = target: Human immunodeficiency virus type 1 reverse transcriptase (Human immunodeficiency virus 1, UniProt Q72547, Y181C); test: Inhibition of HIV-1 p66/p51 reverse transcriptase Y181C mutant incubated for 40 mins by picogreen dye-based spectrofluorometric analysis
[8] = Inhibition of HIV-1 p66/p51 reverse transcriptase Y188L mutant incubated for 40 mins by picogreen dye-based spectrofluorometric analysis; parameters: species or system Human immunodeficiency virus 1
[9] = Inhibition of HIV-1 p66/p51 reverse transcriptase E138K mutant incubated for 40 mins by picogreen dye-based spectrofluorometric analysis; parameters: species or system Human immunodeficiency virus 1
[10] = target: Human immunodeficiency virus type 1 reverse transcriptase (Human immunodeficiency virus 1, UniProt Q72547); test: Inhibition of recombinant wild type p66/p51 HIV1 reverse transcriptase incubated for 40 mins by picogreen dye-based spectrofluorometric analysis
[11] = Selectivity index, ratio of CC50 for cytotoxicity against human MT-4 cells to EC50 for inhibition of HIV-1 p66/51 reverse transcriptase L100I mutant; format: toxicity, cell-based; details: read-out: Ratio CC50/EC50
[12] = Selectivity index, ratio of CC50 for cytotoxicity against human MT-4 cells to EC50 for inhibition of HIV-1 p66/51 reverse transcriptase K103N mutant; format: toxicity, cell-based; details: read-out: Ratio CC50/EC50
[13] = Selectivity index, ratio of CC50 for cytotoxicity against human MT-4 cells to EC50 for inhibition of HIV-1 p66/51 reverse transcriptase Y181C mutant; format: toxicity, cell-based; details: read-out: Ratio CC50/EC50
[14] = Selectivity index, ratio of CC50 for cytotoxicity against human MT-4 cells to EC50 for inhibition of HIV-1 p66/51 reverse transcriptase Y188L mutant; format: toxicity, cell-based; details: read-out: Ratio CC50/EC50
[15] = Selectivity index, ratio of CC50 for cytotoxicity against human MT-4 cells to EC50 for inhibition of HIV-1 p66/51 reverse transcriptase E138K mutant; format: toxicity, cell-based; details: read-out: Ratio CC50/EC50
[16] = Acute toxicity in pregnant mouse assessed as death at 2 g/kg, ig; details: in vivo, po, 2000 mg/kg
[17] = Acute toxicity in healthy female mouse assessed as increase in body weight at 2 g/kg, ig; details: in vivo, po, 2000 mg/kg
[18] = Acute toxicity in healthy mouse assessed as death at 2 g/kg, ig; details: in vivo, po, 2000 mg/kg
[19] = Metabolic stability in human liver microsomes assessed as intrinsic clearance per mg protein; format: ADME, Microsome; details: read-out: CLH
[20] = Metabolic stability in mouse liver microsomes assessed as intrinsic clearance per mg protein; format: ADME, Microsome
[21] = Metabolic stability in rat liver microsomes assessed as intrinsic clearance per mg protein; format: ADME, Microsome
[22] = Metabolic stability in mouse liver microsomes assessed as half life; format: ADME, Microsome
[23] = Metabolic stability in rat liver microsomes assessed as half life; format: ADME, Microsome
[24] = Toxicity in pregnant mouse assessed as lung damage at 2 g/kg, ig monitored for 2 weeks by HE staining based assay; format: tissue-based; details: in vivo, po, 2000 mg/kg, 336 h
[25] = Toxicity in pregnant mouse assessed as kidney damage at 2 g/kg, ig monitored for 2 weeks by HE staining based assay; format: tissue-based; details: in vivo, po, 2000 mg/kg, 336 h
[26] = Toxicity in pregnant mouse assessed as spleen damage at 2 g/kg, ig monitored for 2 weeks by HE staining based assay; format: tissue-based; details: in vivo, po, 2000 mg/kg, 336 h
[27] = Toxicity in pregnant mouse assessed as liver damage at 2 g/kg, ig monitored for 2 weeks by HE staining based assay; format: tissue-based; details: in vivo, po, 2000 mg/kg, 336 h
[28] = Toxicity in pregnant mouse assessed as brain damage at 2 g/kg, ig monitored for 2 weeks by HE staining based assay; format: tissue-based; details: in vivo, po, 2000 mg/kg, 336 h
[29] = Toxicity in pregnant mouse assessed as heart damage at 2 g/kg, ig monitored for 2 weeks by HE staining based assay; format: tissue-based; details: in vivo, po, 2000 mg/kg, 336 h
[30] = Toxicity in healthy female mouse assessed as kidney damage at 2 g/kg, ig monitored for 2 weeks by HE staining based assay; format: tissue-based; details: in vivo, po, 2000 mg/kg, 336 h
[31] = Toxicity in healthy female mouse assessed as spleen damage at 2 g/kg, ig monitored for 2 weeks by HE staining based assay; format: tissue-based; details: in vivo, po, 2000 mg/kg, 336 h
[32] = Toxicity in healthy female mouse assessed as lung damage at 2 g/kg, ig monitored for 2 weeks by HE staining based assay; format: tissue-based; details: in vivo, po, 2000 mg/kg, 336 h
[33] = Toxicity in healthy female mouse assessed as liver damage at 2 g/kg, ig monitored for 2 weeks by HE staining based assay; format: tissue-based; details: in vivo, po, 2000 mg/kg, 336 h
[34] = Toxicity in healthy female mouse assessed as brain damage at 2 g/kg, ig monitored for 2 weeks by HE staining based assay; format: tissue-based; details: in vivo, po, 2000 mg/kg, 336 h
[35] = Toxicity in healthy female mouse assessed as heart damage at 2 g/kg, ig monitored for 2 weeks by HE staining based assay; format: tissue-based; details: in vivo, po, 2000 mg/kg, 336 h
[36] = tested on: Human immunodeficiency virus type 1 reverse transcriptase (Human immunodeficiency virus 1), Q72547 [K103N]; test: Potency index, ratio of EFV EC50 to test compound EC50 for inhibition of HIV-1 p66/p51 reverse transcriptase K103N mutant
[37] = tested on: Human immunodeficiency virus type 1 reverse transcriptase (Human immunodeficiency virus 1), Q72547 [K103N]; test: Potency index, ratio of NVP EC50 to test compound EC50 for inhibition of HIV-1 p66/p51 reverse transcriptase K103N mutant
[38] = Cmax in Wistar rat at 5 mg/kg, po; format: ADME, organism-based; parameters: route oral, dose 5 mg/kg; details: in vivo
[39] = Tmax in Wistar rat at 5 mg/kg, po; format: ADME, organism-based; details: in vivo
[40] = Half life in Wistar rat at 5 mg/kg, po; format: ADME, organism-based; details: in vivo
[41] = Half life in Wistar rat at 1 mg/kg, iv; format: ADME, organism-based; details: in vivo
[42] = MRTinfinity in Wistar rat at 1 mg/kg, iv; format: ADME, organism-based; details: in vivo
[43] = AUCinfinity in Wistar rat at 1 mg/kg, iv; format: ADME, organism-based; parameters: route intravenous, time infinity, dose 1 mg/kg; details: in vivo
[44] = MRTinfinity in Wistar rat at 5 mg/kg, po; format: ADME, organism-based; details: in vivo
[45] = AUC in Wistar rat at 1 mg/kg, iv; format: ADME, organism-based; parameters: dose 1 mg/kg; details: in vivo
[46] = AUCinfinity in Wistar rat at 5 mg/kg, po; format: ADME, organism-based; parameters: route oral, time infinity, dose 5 mg/kg; details: in vivo
[47] = AUC in Wistar rat at 5 mg/kg, po; format: ADME, organism-based; parameters: dose 5 mg/kg; details: in vivo
[48] = Acute toxicity in pregnant mouse assessed as abortion at 2 g/kg, ig; details: in vivo, po, 2000 mg/kg
[49] = Acute toxicity in pregnant mouse assessed as stillborn fetus at 2 g/kg, ig; details: in vivo, po, 2000 mg/kg
[50] = Acute toxicity in pregnant mouse assessed as offspring survival rate at 2 g/kg, ig; details: in vivo, po, 2000 mg/kg
[51] = Acute toxicity in pregnant mouse assessed as behavioral abnormalities at 2 g/kg, ig measured for 2 weeks; details: in vivo, po, 2000 mg/kg, 336 h
[52] = Acute toxicity in healthy female mouse assessed as behavioral abnormalities at 2 g/kg, ig measured for 2 weeks; details: in vivo, po, 2000 mg/kg, 336 h
[53] = Acute toxicity in pregnant mouse assessed as increase in body weight at 2 g/kg, ig; details: in vivo, po, 2000 mg/kg
[54] = Metabolic stability in rat liver microsomes; format: ADME, Microsome
[55] = Metabolic stability in mouse liver microsomes; format: ADME, Microsome

Cc1cc(-c2ccc(C#N)cc2)cc(C)c1Nc1ccnc(Nc2ccc(C#N)cc2)n1
k el [1]: 0.000783 s⁻¹

N#Cc1ccc(Nc2nccc(N(CCO)c3c(F)cc(-c4ccc(C#N)cc4)cc3F)n2)cc1
EC50 [2]: 5 nM | CC50 at 120 h [3]: 5.31 µM | selectivity ratio [4]: 1060 | EC50 [5]: 18.2 nM | EC50 [6]: 36.3 nM | EC50 [7]: 21.8 nM | EC50 [8]: 662 nM | EC50 [9]: 7.6 nM | IC50 [10]: 15 nM | selectivity ratio [11]: 293 | selectivity ratio [12]: 146 | selectivity ratio [13]: 244 | selectivity ratio [14]: 8 | selectivity ratio [15]: 701

CC(=O)N(c1ccnc(Nc2ccc(C#N)cc2)n1)c1c(F)cc(-c2ccc(C#N)cc2)cc1F
EC50 [2]: 8 nM | CC50 at 120 h [3]: > 268 µM | selectivity ratio [4]: > 34700 | EC50 [5]: 64.8 nM | EC50 [6]: 10.9 nM | EC50 [7]: 27.4 nM | EC50 [8]: 548 nM | EC50 [9]: 9.23 nM | IC50 [10]: 40 nM | selectivity ratio [11]: > 4140 | selectivity ratio [12]: > 24500 | selectivity ratio [13]: > 9800 | selectivity ratio [14]: > 490 | selectivity ratio [15]: > 29100

Cc1cnc(Nc2ccc(C#N)cc2)nc1Nc1c(F)cc(-c2ccc(C#N)cc2)cc1F
Activity [16]: Non-Toxic | Activity [17]: Toxic | Activity [18]: Non-Toxic | microsomal CLint [19]: 5 µL/min/mg | CLH [20]: 30.1 µL/min | CLH [21]: 28.4 µL/min | t1/2 [22]: 46.1 min | t1/2 [23]: 48.9 min | Activity [24]: Non-Toxic | Activity [25]: Non-Toxic | Activity [26]: Non-Toxic | Activity [27]: Non-Toxic | Activity [28]: Non-Toxic | Activity [29]: Non-Toxic | Activity [30]: Non-Toxic | Activity [31]: Non-Toxic | Activity [32]: Non-Toxic | Activity [33]: Non-Toxic | Activity [34]: Non-Toxic | Activity [35]: Non-Toxic | Ratio EC50 [36]: 17 | Ratio EC50 [37]: 17 | Cmax [38]: 38.4 ng/mL | Tmax [39]: 40.2 min | half-life [40]: 128 min | half-life [41]: 70.8 min | MRT inf [42]: 51.6 min | AUC(0-inf) [43]: 1090 ng·h/mL | MRT inf [44]: 3.5 h | AUC [45]: 1080 ng·h/mL | AUC(0-inf) [46]: 130 ng·h/mL | AUC [47]: 115 ng·h/mL | Activity [48]: Non-Toxic | Activity [49]: Non-Toxic | Activity [50]: Non-Toxic | Activity [51]: Non-Toxic | Activity [52]: Non-Toxic | Activity [53]: Toxic | EC50 [2]: 1 nM | CC50 at 120 h [3]: > 285 µM | selectivity ratio [4]: > 208000 | EC50 [5]: 16.3 nM | EC50 [6]: 5.4 nM | EC50 [7]: 11.2 nM | EC50 [9]: 8.3 nM | IC50 [10]: 13 nM | selectivity ratio [11]: > 17500 | selectivity ratio [12]: > 53200 | selectivity ratio [13]: > 25500 | selectivity ratio [15]: > 34200 | k el [54]: 0.000237 s⁻¹ | k el [1]: 8.33e-05 s⁻¹ | k el [55]: 0.00025 s⁻¹
